Tests used:
σ1 = σ1 (Homo sapiens, UniProt Q99720); settings: cited from earlier work; for Ki: read-out: Ki (σ1-ligands)
Superoxide = Superoxide in LPS-treated rats; format: in vivo; settings: 6 h after LPS
Protocol: (§1) Compounds, XXV and XXVI (shown below), were tested according to the foregoing protocols. In the following tables, XXV or XXVI (5 mg/Kg, iv) was injected 30 min before LPS treatment (10 mg/Kg, iv) unless otherwise indicated. In all experiments, at least six rats were tested. All measurements were performed 6 h after LPS injection unless otherwise indicated. The inhibitory effects of the compounds tested were described as a percentage of protection or inhibition with respect to the change in LPS-treated animals as compared to the control animals.

[1] = tested on: lung tissues of rats receiving lipopolysaccharide (LPS); assay: Histological study of lung tissue after LPS
Excerpt: Lungs and livers were obtained from surviving mice in each group after the survival study and these tissues were fixed in Carson-Millonig's solution for histopathological examination as described previously in Chen, A. et al. Lab. […] The fixed lung and liver tissues were dehydrated in graded ethanol and embedded in paraffin. Three-micron sections were stained with the hematoxylin and eosin reagent for light microscopy. […] This histological alteration was quantitatively analyzed as an index on the severity of tissue injury. This index was a neutrophil infiltration index which was determined by counting the numbers of neutrophils in 10 randomly selected high power fields. The index was expressed as the mean of these 10 numbers±standard error of the mean (SEM)/high power field.

[2] = tested on: ICR mice injected with LPS; assay: Survival study after LPS; format: in vivo
Protocol: Survival studies were performed in ICR mice (28-35 g), whose stock originated from the Institute of Cancer Research of National Institute of Health in U.S.A. They were purchased from the National Animal Center (Taipei, R.O.C., Taiwan). LPS [60 mg/kg intraperitoneally (i.p.)] was injected in the presence of vehicle or drugs and survival was monitored every 6 hours until 36 hours, Different groups of animals received vehicle (saline) together with LPS (n=20) or LPS plus compounds (2.5 mg/kg at time 0 and 6 hours after LPS, n=20).
All values in the figures and text are expressed as mean. SEM of n observations, where n represents the number of animals studied. Statistical evaluation was performed by using analysis of variance (ANOVA) followed by a multiple comparison test (Scheffe's test), the IL-10 level and the neutrophil infiltration index which were analyzed by unpaired Student's t test. The chi-square test was used for determining the significant differences in the survival rate between control and drug-treated groups. A P value of less than 0.05 was considered to be statistically significant.

Blood urea nitrogen = Blood urea nitrogen (BUN) in LPS-treated rats; format: in vivo; settings: 5 mg/Kg iv 30 min before LPS (10 mg/Kg iv); 6 h after LPS
Protocol: (§2) Wistar-Kyoto (WKY) rats were anesthetized by intraperitoneal injection of urethane (1.2 g/kg). The trachea was cannulated to facilitate respiration and environmental temperature was maintained at 24° C. with an air-conditioning system. […] The left jugular vein was cannulated for the administration of drugs. Upon completion of the surgical procedure, cardiovascular parameters were allowed to stabilize for 30 min. After recording baseline hemodynamic parameters, animals were given norepinephrine [NE, 1 μg/kg intravenously (i.v.)], and 10 min later animals received vehicle (saline) or Escherichia coli lipopolysaccharide (LPS), 5-10 mg/kg, i.v. and were monitored for 360 min. The pressor responses to NE were reassessed every hour after vehicle or LPS injection. Prior to (i.e., at time 0) and every hour after vehicle or LPS, 0.5 mL of blood was taken to measure the changes in cytokine tumor necrosis factor-α (TNF-α), interleukin-10β (IL-10), and nitrate (an indicator of NO) (Yen, M. H. et al., Shock 14, 60-67, 2000). […] All hemodynamic and biochemical parameters were recorded for 6 hours in all animal groups.
(§3) BUN and Creatinine levels were measured at 0 and 6 hr after injection of saline or LPS by “DRI-Chemical slide” (Fujifilm Co., dropping 10 μL plasma onto the slide with micropipette). […]

[3] = tested on: rats treated with lipopolysaccharide (LPS); assay: Heart rate in LPS-treated rats; format: in vivo, Wistar-Kyoto (WKY) rats; settings: 5 mg/Kg iv 30 min before LPS (10 mg/Kg iv); 6 h after LPS
Protocol: (§4) Wistar-Kyoto (WKY) rats were anesthetized by intraperitoneal injection of urethane (1.2 g/kg). The trachea was cannulated to facilitate respiration and environmental temperature was maintained at 24° C. with an air-conditioning system. […] The left jugular vein was cannulated for the administration of drugs. Upon completion of the surgical procedure, cardiovascular parameters were allowed to stabilize for 30 min. After recording baseline hemodynamic parameters, animals were given norepinephrine [NE, 1 μg/kg intravenously (i.v.)], and 10 min later animals received vehicle (saline) or Escherichia coli lipopolysaccharide (LPS), 5-10 mg/kg, i.v. and were monitored for 360 min. The pressor responses to NE were reassessed every hour after vehicle or LPS injection. Prior to (i.e., at time 0) and every hour after vehicle or LPS, 0.5 mL of blood was taken to measure the changes in cytokine tumor necrosis factor-α (TNF-α), interleukin-10β (IL-10), and nitrate (an indicator of NO) (Yen, M. H. et al., Shock 14, 60-67, 2000). Any blood withdrawn was immediately replaced by the injection of an equal volume of saline (i.v.) in order to maintain the blood volume. The drug was administered i.v. 30 min. prior to and 30 min. after the injection of LPS. All hemodynamic and biochemical parameters were recorded for 6 hours in all animal groups.
as §1

SGPT = assay: Serum glutamic pyrate transaminase (SGPT) in LPS-treated rats; format: in vivo; settings: for SGPT, LPS + Compound / SGPT % Inhibition: 6 h after LPS
Protocol: as §4
(§5) 10 μl of serum was taken out at 0 and 6 hr intervals and were added to slides of GOP and GTP and then placed in DRI-CHEM 3000 (Colorige Tric Analyzer; FUJIFILM; Tokyo, Japan.
as §1

[4] = tested on: rats treated with lipopolysaccharide (LPS); assay: Mean arterial blood pressure (MAP) in LPS-treated rats; format: in vivo, Wistar-Kyoto (WKY) rats; settings: 5 mg/Kg iv 30 min before LPS (10 mg/Kg iv); 6 h after LPS
Protocol: as §4, §1

[5] = tested on: nitrate (an indicator of NO); assay: Plasma nitrate in LPS-treated rats; format: in vivo, Wistar-Kyoto (WKY) rats; settings: 5 mg/Kg iv 30 min before LPS (10 mg/Kg iv); 6 h after LPS
Protocol: as §2, with “injection.” for “injection. Prior to (i.e., at time 0) and every hour after vehicle or LPS, 0.5 mL of blood was taken to measure the changes in cytokine tumor necrosis factor-α (TNF-α), interleukin-10β (IL-10), and nitrate (an indicator of NO) (Yen, M. H. et al., Shock 14, 60-67, 2000).”
Fifty microliters of plasma previously kept in −20° C. freezer was thawed and de-proteinized by incubating with 95% ethanol (4° C.) for 30 min. […] The amounts of nitrate in the plasma ([…]) were measured by adding a reducing agent (0-8% VCl3 in 1N HCl) to the purge vessel to convert nitrate to NO, which was stripped from the plasma by using a helium gas purge. […] Nitrate concentrations were calculated by comparison with standard solutions of sodium nitrate (Sigma Chemical Co., St. Louis, Mo.). […]

TNF-α = assay: Plasma TNF-α (ELISA) in LPS-treated rats; format: in vivo, Wistar-Kyoto (WKY) rats; settings: 5 mg/Kg iv 30 min before LPS (10 mg/Kg iv); measurement taken at 2 h
Protocol: as §4
Blood samples (0.3 mL) for the measurement of TNF-α level in the plasma were obtained at 0, 60, 120, 180, and 360 min. after the injection of saline or LPS. At 60 and 360 min. after the injection of saline or LPS, the volume of blood sample taken from the animals was 0.5 mL instead of 0.3 mL for performing the measurement of IL-10 in addition to TNF-α. These samples were collected from a catheter placed in the carotid artery and were centrifuged at 7200 g for 3 min. to obtain the plasma for measuring the levels of TNF-α, IL-10, and nitrate (as described below). The plasma samples (100 μL) were diluted 1:2, and TNF-α was measured in duplicate with an enzyme-linked immunoadsorbent assay (ELISA) kit (Genzyme Co., Cambridge, Mass.), and the amounts of IL-10 in the plasma (100 μL) were measured by ELISA kit (Endogen Inc., Boston, Mass.), as described previously (Yen, M. H. et al.: Biochem. Biophys. Res. Commun. 228:459-466 (1996)).
Compounds, XXV and XXVI (shown below), were tested according to the foregoing protocols. In the following tables, XXV or XXVI (5 mg/Kg, iv) was injected 30 min before LPS treatment (10 mg/Kg, iv) unless otherwise indicated. In all experiments, at least six rats were tested. All measurements were performed 6 h after LPS injection unless otherwise indicated. […]

Creatinine = assay: Plasma creatinine in LPS-treated rats; format: in vivo; settings: 5 mg/Kg iv 30 min before LPS (10 mg/Kg iv); 6 h after LPS
Protocol: as §2, §3

SGOT = assay: Serum glutamic oxaloacetic transaminase (SGOT) in LPS-treated rats; format: in vivo; settings: for SGOT % Inhibition / SGOT, LPS + Compound: 6 h after LPS
Protocol: as §4, §5, §1

[6] = 5 mg/Kg iv 30 min before LPS (10 mg/Kg iv)
[7] = 5 mg/Kg iv 30 min before LPS (10 mg/Kg iv), XXVI value not statistically significant
[8] = 6 hours after LPS, pretreatment (30 min before LPS; 5, 10 mg/kg) and post-treatment (30 min after LPS; 10 mg/kg), p<0.05

σ1, sequence (Q99720 whole entry): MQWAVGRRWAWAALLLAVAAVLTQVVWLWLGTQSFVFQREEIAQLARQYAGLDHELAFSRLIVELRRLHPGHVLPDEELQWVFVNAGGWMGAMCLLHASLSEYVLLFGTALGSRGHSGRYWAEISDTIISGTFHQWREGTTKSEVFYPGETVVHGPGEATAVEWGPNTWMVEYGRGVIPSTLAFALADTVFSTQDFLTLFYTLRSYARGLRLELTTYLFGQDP

SMILES: Br.C=CCN1CC[C@]23CCCC[C@H]2[C@H]1Cc1ccc(OC)cc13
- melting point: 190 to 192 °C

SMILES: Br.COc1ccc2c(c1)[C@@]13CCCC[C@H]1[C@@H](C2)N(Cc1ccccc1)CC3
- melting point: 185 to 186 °C

SMILES: Br.COc1ccc2c(c1)[C@@]13CCCC[C@H]1[C@@H](C2)N(Cc1ccc(F)cc1)CC3
- melting point: 226 to 228 °C

SMILES: C=CCN1CCC2(C)c3cc(O)ccc3CC1C2C (stereo not shown) [N-allylnormetazocine]
- affinity at σ1 (σ1): relatively poor affinity
- σ1/σ2 ratio (σ1; selectivity ratio): < 100

SMILES: C=CCCCCN1CCC2(C)c3cc(O)ccc3CC1C2C (stereo not shown) [N-hex-5-enyl]
- Ki (σ1): 1 nM
- σ2/σ1 (σ1; selectivity ratio): 750

SMILES: C=CCCCN1CCC2(C)c3cc(O)ccc3CC1C2C (stereo not shown) [N-pent-4-enyl]
- Ki (σ1): 2 nM
- σ2/σ1 (σ1; selectivity ratio): 1250

SMILES: COc1ccc2c(c1)[C@]13CCCCC1[C@H](C2)N(C)CC3 (stereo partly shown) [XXVI]
- Superoxide % Inhibition (Superoxide; [6]): 68%
- Superoxide, LPS + Compound (Superoxide; [6]): 8200 relative units
- Lung tissue morphology after compound alone ([1]; injections of compound alone, no LPS, n=2, FIG. 5 (400×) and FIG. 6 (40×)): morphologically relatively normal lung tissues
- PMN infiltration in lung caused by LPS ([1]; pretreatment with compound, high power (400×) light microscope, FIG. 5): improved
- Thickness of alveolar wall with interstitial congestion and edema caused by LPS ([1]; pretreatment with compound, low power (40×) light microscope, FIG. 6): improved
- % of Protection (survival at 14 h) ([2]; 14 h after LPS): 100%
- % of Survival at 14 h, LPS + Compound ([2]; 14 h after LPS, method: LPS 60 mg/kg i.p., compound 2.5 mg/kg at 0 and 6 h): 100%
- % of Protection (survival at 18 h) ([2]; 18 h after LPS): 40%
- % of Survival at 18 h, LPS + Compound ([2]; 18 h after LPS, method: LPS 60 mg/kg i.p., compound 2.5 mg/kg at 0 and 6 h): 40%
- Blood urine nitrogen % of Inhibition (Blood urea nitrogen): 47%
- Blood urine nitrogen, LPS + Compound (Blood urea nitrogen): 45 mg/dL
- Heart Rate % Protection [3]: 36%
- Heart Rate, LPS + Compound [3]: 420 beats/min
- SGPT, LPS + Compound (SGPT; [6]): 36 U/L
- SGPT % Inhibition (SGPT; [7]): 100^3%
- MAP % Protection [4]: 100%
- MAP, LPS + Compound [4]: 105 mmHg
- Nitrate % Inhibition [5]: 75%
- Nitrate, LPS + Compound [5]: 75 µM
- TNF-α % Inhibition (TNF-α): 74%
- TNF-α, LPS + Compound (TNF-α): 510 ng/mL
- Creatinine % of Inhibition (Creatinine): 60%
- Creatinine, LPS + Compound (Creatinine): 0.40 mg/dL
- SGOT % Inhibition (SGOT; [6]): 53%
- SGOT, LPS + Compound (SGOT; [6]): 158 U/L

SMILES: O=C1CC[C@@]2(O)[C@@H]3Cc4ccc(O)c5c4C2(CCN3CC2CC2)[C@H]1O5 [XXV]
- Superoxide % Inhibition (Superoxide; Post-treatment with 10 mg/Kg): 69%
- Superoxide, LPS + Compound (Superoxide; Post-treatment with 10 mg/Kg): 15720 relative units
- Superoxide % Inhibition (Superoxide; Pretreatment with 10 mg/Kg): 85%
- Superoxide, LPS + Compound (Superoxide; Pretreatment with 10 mg/Kg): 11866 relative units
- Heart Rate % Protection [3]: >90%
- Heart Rate, LPS + Compound [3]: 410 beats/min
- SGPT, LPS + Compound (SGPT; [6]): 61.6 U/L
- SGPT % Inhibition (SGPT; [7]): 78%
- Effect on SGTP after LPS (SGPT; [8]): significant decrease
- SGPT % Inhibition (SGPT; Post-treatment with 10 mg/Kg): 82%
- SGPT, LPS + Compound (SGPT; Post-treatment with 10 mg/Kg): 59.6 U/L
- SGPT % Inhibition (SGPT; Pretreatment with 10 mg/Kg): 94%
- SGPT, LPS + Compound (SGPT; Pretreatment with 10 mg/Kg): 53.8 U/L
- MAP % Protection [4]: 33%
- MAP, LPS + Compound [4]: 80 mmHg
- TNF-α % Inhibition (TNF-α): 50%
- TNF-α, LPS + Compound (TNF-α): 180 ng/mL
- SGOT % Inhibition (SGOT; [6]): 60%
- SGOT, LPS + Compound (SGOT; [6]): 192 U/L
- Effect on SGOT after LPS (SGOT; [8]): significant decrease
- SGOT % Inhibition (SGOT; Post-treatment with 10 mg/Kg): 76%
- SGOT, LPS + Compound (SGOT; Post-treatment with 10 mg/Kg): 192 U/L
- SGOT % Inhibition (SGOT; Pretreatment with 10 mg/Kg): 94%
- SGOT, LPS + Compound (SGOT; Pretreatment with 10 mg/Kg): 192 U/L
